Results taken from US9795600B2, “Method for treating abnormal β-amyloid mediated diseases” (NATIONAL TAIWAN NORMAL UNIVERSITY, priority 2014, dated 2017).
Blank lines part the entries; values can stand above or below the compound they belong to.

Tests used:
[1] = system: Tet-On Aβ-GFP HEK-293 cells; assay: Tet-On Aβ-GFP HEK-293 cell assay (GFP fluorescence, HCA); assay type: cell-based, human; details: 8 hr pretreatment, Dox 64 hr, untreated cells = 100%
Description: For cell assay, we used a HEK-293 cell clone (human embryonic kidney cells) with Tet-On Aβ-GFP expression as a screening platform. GFP fluorescence was used to reflect Aβ aggregation status as Aβ aggregated rapidly to cause the fused GFP misfolded. Inhibition of Aβ aggregation may improve GFP misfolding, leading to increasing fluorescence on Aβ-GFP expressing cells. Tet-On Aβ-GFP HEK-293 cells were pretreated with different concentrations of compounds 1, 2, 6, 7 and curcumin for 8 hr before inducing Aβ-GFP expression. Then doxycycline (Dox) (10 μM) was added to the medium for 64 hr to induce Aβ-GFP expression, and GFP fluorescence was assessed by a high-content analysis (HCA) system (ImageXpressMICRO, available from Molecular Devices). To normalize, the relative GFP fluorescence of untreated cells (untreated with compounds 1, 2, 6 and 7, and curcumin) is set as 100%. *, P<0.05 as compared to the untreated cells; #, P<0.05 as compared to the same concentration curcumin-treated cells (n=3).

[2] = system: mouse hippocampal primary culture; assay: Mouse hippocampal primary culture under oligomeric Aβ toxicity; assay type: cell-based; details: 1, 10 or 30 μM, oligomeric Aβ 1 μM, vs. Aβ alone; for total cells (DAPI staining) against oligomeric Aβ toxicity: FIG. 7(A); for mature neurons (NeuN staining) against oligomeric Aβ toxicity: FIG. 7(B); for synaptophysin level against oligomeric Aβ toxicity: FIG. 7(F); for neurite outgrowth (process, branch, length; MAP2 staining) against oligomeric Aβ toxicity: FIGS. 7(C)-(E)
Protocol: Postnatal day 0-1 mouse hippocampus was isolated for primary culture, and used to confirm the neuroprotective potential of the compounds of the present invention. Oligomeric Aβ (1 μM) was applied to the primary culture after the indolylquinoline compound (compounds 1, 2, 6 and 7) administration (1, 10, or 30 μM) at day 9. Cells were harvested 1 hr later for immunocytochemical analysis and quantitated the total cell number (as shown in FIG. 7(A), by DAPI staining), mature neuron number (as shown in FIG. 7(B), by NeuN antibody staining), neurite process (as shown in FIG. 7(C), by MAP2 antibody staining), neurite branch (as shown in FIG. 7(D), by MAP2 antibody staining), neurite length (as shown in FIG. 7(E), by MAP2 antibody staining), and synaptophysin expression level (as shown in FIG. 7(F), by synaptophysin antibody staining) In FIG. 7(A) to (F), the relative amount of cells treated with vesicle (hexafluoroisopropanol) is set as 100%. ###, P<0.001 between cells treated with Aβ and vehicle (n=3). *, P<0.05; **, P<0.01; ***, P<0.001 between cells treated with Aβ combined the compound of the present invention and Aβ alone (n=3).

[3] = system: HSPB1; assay: HSPB1 expression in Aβ-GFP SH-SY5Y cells (Western blot); assay type: cell-based, human; details: 5 μM; uninduced cells = 100%, induced untreated cells 90%
Description: The result is shown in FIG. 6, wherein the relative HSPB1 level of uninduced cells is set as 100%. *, P<0.05 between induced vs uninduced cells or compound-treated vs. untreated cells (n=3).

[4] = target: T1, Trx-His-Aβ protein (Homo sapiens, UniProt P05067); assay: Trx-His-Aβ biochemical assay (thioflavin T staining); details: Trx-His-Aβ 10 μM, 37° C., 48 hr, Trx-His-Aβ with 2 days' incubation = 100%
T1 construct: the inventors overexpressed Trx-His tagged Aβ construct in E. coli; made in house; host or cells: E. coli
Protocol: Aggregation of β-amyloid (Aβ) was considered as target for intervention. For the biochemical assay, the inventors overexpressed Trx-His tagged Aβ construct in E. coli. After metal-affinity chromatography purification, the misfolded Trx-His-Aβ proteins can be identified by thioflavin T staining assay. The fluorescent intensity is increased after thioflavin T binds misfolded Trx-His-Aβ protein, and thus the misfolding level of Trx-His-Aβ protein can be measured. […] Then thioflavin T (10 μM) was added for 5 min and fluorescence analyzed on a microplate reader (excitation: 420 nm, emission: 485 nm). To normalize, the relative thioflavin T fluorescence of Trx-His-Aβ protein with 2 days' incubation at 37° C. is set as 100%. *, P<0.05 (n=3).

[5] = system: Tet-On Aβ-GFP HEK-293 cells; assay: ROS assay in Tet-On Aβ-GFP HEK-293 cells; assay type: cell-based, human; details: 5 μM; uninduced cells = 100%, induced untreated cells 128%
Protocol: Given that Aβ deposition causes cell death via a number of potential mechanisms including oxidative stress, the inventor also performed ROS assay with curcumin or synthetic indolylquinoline compounds 1, 2, 6 and 7 treatment (5 μM).

[6] = system: Tet-On Aβ-GFP SH-SY5Y cells; assay: Neurite outgrowth in Tet-On Aβ-GFP SH-SY5Y cells (TUBB3 immunostaining, HCA); assay type: cell-based, human; details: 5 μM; Dox 6 days; uninduced cells = 100%, induced untreated cells 87%
Protocol: Tet-On Aβ human neuroblastoma SH-SY5Y cells were used to examine the neuroprotective potential of the compounds of the present invention. Tet-On Aβ-GFP SH-SY5Y cells were plated into 24-well plates with 10 μM retinoic acid (RA), grown for 24 hr and treated with tested indolylquinoline compounds 1, 2, 6 and 7 (5 μM) for 8 hr. Then doxycycline (10 μM) was added to the medium to for 6 days. Neurite outgrowth was assessed after TUBB3 immunostaining, and examined with the HCA system. The result is shown in FIG. 5, wherein the relative neurite outgrowth of uninduced cells (untreated with Dox) is set as 100%. *, P<0.05 between induced vs. uninduced cells or compound-treated vs. untreated cells (n=3).

[7] = 1.2˜5.0 μM, above 80% of viable cells

T1 sequence (P05067 672-713 limits assumed): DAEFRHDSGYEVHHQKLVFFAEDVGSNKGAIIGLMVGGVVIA

Compound: Cc1nc2ccccc2cc1Cc1c[nH]c2ccccc12 [compound 7]
relative GFP fluorescence (Aβ-GFP) ([1]; 1.2 μM, above 80% of viable cells): 105%
total cells (DAPI staining) against oligomeric Aβ toxicity [2]: significantly improved
mature neurons (NeuN staining) against oligomeric Aβ toxicity [2]: significantly improved
synaptophysin level against oligomeric Aβ toxicity [2]: significantly improved
neurite outgrowth (process, branch, length; MAP2 staining) against oligomeric Aβ toxicity [2]: significantly improved
relative HSPB1 level [3]: 117%
relative thioflavin T fluorescence (misfolded Trx-His-Aβ aggregation) ([4]; 20 μM compound): 84%

Compound: COc1cc(/C=C/C(=O)CC(=O)/C=C/c2ccc(O)c(OC)c2)ccc1O [curcumin, reference compound]
relative ROS level [5]: 86%
relative neurite outgrowth [6]: 105%
relative GFP fluorescence (Aβ-GFP) ([1]; 2.5˜5.0 μM): 111˜122%
relative HSPB1 level [3]: 123%
relative thioflavin T fluorescence (misfolded Trx-His-Aβ aggregation) ([4]; 5˜20 μM compound): 76˜54%

Second part, led by results:

relative thioflavin T fluorescence (misfolded Trx-His-Aβ aggregation) ([4]; 10˜20 μM compound): 74˜70%
Compound: CC(=O)C(=Cc1ccccc1[N+](=O)[O-])Cc1c(C)[nH]c2ccccc12 [compound 2]
relative GFP fluorescence (Aβ-GFP) ([1]; 1.2˜2.5 μM, above 80% of viable cells): 107˜120%
total cells (DAPI staining) against oligomeric Aβ toxicity [2]: significantly improved
mature neurons (NeuN staining) against oligomeric Aβ toxicity [2]: significantly improved
synaptophysin level against oligomeric Aβ toxicity [2]: significantly improved
neurite outgrowth (process, branch, length; MAP2 staining) against oligomeric Aβ toxicity [2]: significantly improved
relative HSPB1 level [3]: 112%

relative thioflavin T fluorescence (misfolded Trx-His-Aβ aggregation) ([4]; 20 μM compound): 79%
Compound: CC(=O)C(=Cc1ccccc1[N+](=O)[O-])Cc1c[nH]c2ccccc12 [compound 1]
relative GFP fluorescence (Aβ-GFP) [1, 7]: 112˜129%
total cells (DAPI staining) against oligomeric Aβ toxicity [2]: significantly improved
mature neurons (NeuN staining) against oligomeric Aβ toxicity [2]: significantly improved
synaptophysin level against oligomeric Aβ toxicity [2]: significantly improved
neurite outgrowth (process, branch, length; MAP2 staining) against oligomeric Aβ toxicity [2]: significantly improved
relative HSPB1 level [3]: 126%

relative thioflavin T fluorescence (misfolded Trx-His-Aβ aggregation) ([4]; 5˜20 μM compound): 90˜71%
Compound: CCc1cccc2c(CC(=Cc3ccccc3[N+](=O)[O-])C(C)=O)c[nH]c12 [compound 6]
relative GFP fluorescence (Aβ-GFP) [1, 7]: 107˜130%
total cells (DAPI staining) against oligomeric Aβ toxicity [2]: significantly improved
mature neurons (NeuN staining) against oligomeric Aβ toxicity [2]: significantly improved
synaptophysin level against oligomeric Aβ toxicity [2]: significantly improved
neurite outgrowth (process, branch, length; MAP2 staining) against oligomeric Aβ toxicity [2]: significantly improved
relative HSPB1 level [3]: 116%
